Assay results: US8552052B2, “Use of diindolylmethane-related indoles for the treatment and prevention of respiratory syncytial virus associated conditions” (BioResponse, L.L.C., priority 2004, dated 2013)
Entries after “also recorded” stand apart in the source; their conditions may differ.

Columns and labels:
[1] = tested on: RSV, strain A2; assay: Production of infectious RSV from infected A549 cells (plaque titer on HEp-2 monolayers); type: cell-based, Respiratory Syncytial Virus
Experimental: Cell Culture—A549 cells, a tumor cell line with properties of normal airway epithelial cells, were obtained from American Type Culture Collection (ATCC, Manassas, Va.) and incubated at 37° C. in 5% CO2. The cells were cultured in Eagle's minimum essential medium (MEM, Invitrogen) supplemented with 10% fetal bovine serum (HyClone, Logan, Utah) and […] gentamicin. The A549 cells were subcultured by harvesting in 0.12% trypsin no more than 20 times from stock originally designated at pass 70. To minimize effects of exogenous growth factors or cytokines in this system, the supplemented serum concentration was reduced to 0.5% 24 h prior to and during all experiments with RSV infection. […] RSV Virus—RSV, strain A2, was obtained from Advanced Biotechnologies Inc. (Columbia, Md.) and was used directly as supplied for all experiments. The viral preparation was tested to have a TCID50 titer of ˜1×10^9 in Hep-2 cells at 7 days. […] Levels of Production of Infectious RSV—Production of infectious RSV particles in A549 cell culture in the presence of various concentrations of DIM was measured using a method where the cell free media were titered for RSV infectious activity on a monolayer culture of Hep-2 cells. […] The plaques that appeared around 48 h of incubation were visualized by neutral red staining and counted.

[2] = tested on: RSV Long strain; assay: Pulmonary viral assay (pfu in lung homogenate) in RSV infected BALB/c mice; type: in vivo
Experimental: The Following Experimental BALB/c Groups and Treatment Protocol Using DIM were Studied: • 1. RSV infected positive control group, infected with RSV and injected subcutaneously (SC) once daily with DMSO/Phosphate Buffered Saline (PBS) vehicle. • 2. RSV infected, Low dose Parenteral DIM group (15 mg/kg/day), injected SC once daily with DIM suspension • 3. RSV infected, High dose DIM Group (150 mg/kg/day), injected SC once daily with DIM suspension • 4. RSV infected, orally treated DIM group (250 mg/kg/day from absorption enhanced DIM [Example 6.1]), added to powdered feed • 5. Uninfected negative control group, nasally administered vehicle only, and injected subcutaneously (SC) once daily with DMSO/PBS vehicle
Animals, cells, and viruses. Pathogen-free 8-10 week old female BALB/c mice, weighing between 16 and 20 g, were purchased from Charles River Laboratories. All mice were housed in cages covered with barrier filters and are fed mouse chow and water ad libitum. HeLa cells are maintained in Eagle's minimal essential medium supplemented with glutamine, gentamicin, penicillin G, and 10% fetal bovine serum.
RSV stock. RSV Long strain was grown on HEp-2 monolayers (American Type Culture Collection, Manassas, Va.). The extracellular media containing liberated progeny virus was collected at about 70 hr. The virus was purified and concentrated by precipitation with polyethylene glycol (MW 8,000) and sucrose gradient centrifugation. The final preparation had infectious titer in the range of 10^8-10^9 pfu/ml and was stored frozen at −80° C. in small portions. All infectious viral titers (plaque forming units [pfu]) were determined by agarose plaque assay on HEp-2 monolayers with neutral red staining using standard procedures. Another suitable strain is the A2 strain of RSV (American Type Culture Collection).
Mouse treatment, infection and harvest. […]
Pulmonary viral assay and clinical measurements. […] Respiratory rates (breaths per min) were determined by counting over a period of 2-3 mins. […]

`c1ccc2c(Cc3c[nH]c4ccccc34)c[nH]c2c1` [DIM, 3,3′-diindolylmethane] was tested, and the “RSV yield: viral replication and production of extracellular, progeny RSV viral particles” value ([1]; 72 hour treatment of infected A549 cells, DIM 70, 210, 700 nM, LY294002 2 and 5 μM, FIG. 2) was “reduced production of infectious, progeny RSV virons; also recorded: significantly reduced viral replication and production of extracellular, progeny RSV viral particles”, the “Reduction of RSV replication by DIM compared with LY294002” value ([1]; infected A549 cells, 72 h, nM DIM vs higher concentrations of LY294002) was “equal or greater to that caused by LY294002; also recorded: comparable to that seen with higher concentrations of LY294002” and the “RSV growth in the lung / viral counts in lung tissue” value ([2]; DIM administered orally or parenterally, BALB/c mice) was “inhibit RSV growth in the lung; also recorded: significant reduction in viral counts in lung tissue”. The pulmonary viral count ([2]; SC administered DIM, 10 days pi, vs vehicle treated, RSV-infected controls, FIG. 4) was “significantly reduced pulmonary viral count” and the “intrapulmonary replication of nasally administered RSV virus” value ([2]; oral 250 mg/kg/day and SC 15 and 150 mg/kg/day, 6 days post infection (pi), vs vehicle treated RSV-infected controls, FIG. 4) was “significantly reduced the intrapulmonary replication”.
